Data set [1] has as its system potted vines. Put plainly: Tolerance by potted vines in greenhouse; spray application. It counts as in vivo. To be noted: for Potted vines - leaf damage: 4.0 and 8.0 kg/ha. The protocol:
(§1) Plastic flowerpots having a volume of 300 cm^3 were filled with a sandy loam and the test plants placed therein (either as seed, as vegetatively reproduced species, or as potted plants, e.g., vines). For preemergence treatment, the active ingredients were suspended or emulsified in water as vehicle and sprayed onto the surface of the soil immediately after sowing by means of finely distributing nozzles. The potted vines were treated by spraying them with the correspondingly diluted liquor. For postemergence treatment, the agents were, as stated above, sprayed in water onto the leaves of the test plants, some liquor also falling onto the soil. In some special cases, solid active ingredients were first dissolved in dimethylformamide and then applied in a total liquor amount of 400 liters of water per hectare. For the postemergence treatment, the plants were first grown to a height of from 3 to 10 cm before being treated. With grasses, the first growth was cut, and the new growth treated 2 to 3 days after cutting. The temperature requirements of the plants were taken into account by placing them in cooler or warmer sections of the greenhouse. The experiments were run for from 4 to 6 weeks, during which time the plants were tended and their reaction to the various treatments was assessed.
(§2) The application rates are given in kg/ha of active ingredient, regardless of the method of application and the amount of water used.
(§3) A 0 to 100 scale was used for the evaluation, 0 denoting normal emergence or no damage (or no inhibition), and 100 denoting non-emergence or complete destruction of the plants. A distinction should be made in the influence on growth between desired changes without any appreciable disadvantageous phytotoxic effects (e.g., purely growth-regulating effects) and those of a phytotoxic herbicical character.

Data set [2] deals with spring barley. Put plainly: Growth height of spring barley, soil (preemergence) treatment, Example 9. To be noted: 30 days. It counts as in vivo, spring barley ("Union" variety). The protocol: (§4) Spring wheat of the "Opal" variety and spring barley of the "Union" variety were grown in the winter half of the year under greenhouse conditions in plastic dishes 11.5 cm in diameter, in a peat substrate provided with sufficient nutrients.
(§5) The reductions in growth height caused by the treatment were determined by measuring the height of the plants at the end of the experiment after 30 days' growth, and comparing it with that of untreated plants.

The subject of data set [3] is Ipom. spp. Put plainly: Herbicidal action, pre- and postemergence application in the greenhouse. The class given is in vivo, Ipomoea spp. The settings on record: Ipomoea, post-emergence; 3.0 kg/ha POST; read-out: % damage. The protocol:
as §1, §2, §3

Data set [4] deals with Mentha piper. The description is as above. The class given is in vivo. The settings on record: post-emergence; 3.0 kg/ha POST; read-out: % damage. The protocol:
as §1, §2, §3

The subject of data set [5] is Lolium mult. Described as above. It counts as in vivo. To be noted: Lolium, post-emergence, read-out: % damage. The protocol:
as §1, §2, §3

In data set [6] the test system is Galium apar. The description is as above. To be noted: post-emergence, read-out: % damage. It counts as in vivo, Galium aparine. The protocol: as §1, §2, §3
In data set [7] the test system is Sinapis alba. Described as above. To be noted: post-emergence, 3.0 kg/ha PRE, read-out: % damage. It counts as in vivo. The protocol: as §1, §2, §3
Data set [8] relates to spring wheat. Put plainly: Growth height of spring wheat, soil (preemergence) treatment, Example 9. To be noted: 30 days. The class given is in vivo, spring wheat ("Opal" variety). The protocol: as §4, §5
In data set [9] the test system is spring barley. Put plainly: Growth height of spring barley, soil treatment, Example 11. It counts as in vivo, spring barley ("Union" variety). The protocol: (§6) The test plants--spring wheat ("Opal" variety), spring barley ("Union" variety) and spring rye ("Petkuser" variety)--were grown under greenhouse conditions in plastic dishes 11.5 cm in diameter, in a peat substrate provided with sufficient nutrients.
(§7) The soil (preemergence) treatment was effected after sowing by pouring aqueous formulations of the active ingredients, at four application rates, onto the surface of the substrate.
(§8) The shortening effect caused by the compounds was shown by measurements of the height of the plants at the end of the experiment.
(§9) The prior art compound N,N,N-trimethyl-N-β-chloroethylammonium chloride (CCC, German Printed Application DAS No. 1,294,734) was used for comparison purposes.

In data set [10] the test system is spring barley. Put plainly: Growth height of spring barley, leaf treatment, Example 11. It counts as in vivo, spring barley ("Union" variety). The protocol: as §6
(§10) Leaf treatment was effected by spraying the plants at a growth height of 11 cm with aqueous formulations of the active ingredients, at three application rates.
as §8, §9

In data set [11] the test system is spring rye. Put plainly: Growth height of spring rye, soil treatment, Example 11. The class given is in vivo, spring rye ("Petkuser" variety). The protocol: as §6, §7, §8, §9
Data set [12] deals with spring wheat. Put plainly: Growth height of spring wheat, leaf treatment, Example 11. It counts as in vivo, spring wheat ("Opal" variety). The protocol: as §6, §10, §8, §9
Data set [13] deals with spring rye. Put plainly: Growth height of spring rye, leaf treatment, Example 11. The class given is in vivo, spring rye ("Petkuser" variety). The protocol:
as §6, §10, §8, §9

In data set [14] the test system is Poa pratensis. Put plainly: Shoot growth, postemergence treatment in the greenhouse (table 25). The class given is in vivo. The protocol: as §1, §2, §3
For data set [15], the system named is Arachys hypogaea. The description is as above. The class given is in vivo. The protocol: as §1, §2, §3

Where two headings read alike, the source gives them in different places.

As for `CCNc1nc(Cl)nc(NCC)n1`, the “Potted vines - leaf damage” value in data set [1] is on record as “chlorotic yellow- ing, necroses”. Besides, the “Change in shoot growth” value came out at 17.3 cm in data set [1] (4.0 kg/ha) and 10.3 cm in data set [1] (8.0 kg/ha).
`c1ccc(C2=NOC3C4CC(C5N=NC45)C23)cc1` (stereo not shown) [drawing 391]: in data set [2] (3 kg/ha), the Plant height is recorded as 24.5 cm and the “Plant height, % of untreated control” value is reported as 75.9%. Besides, in [2] (12 kg/ha), the Plant height is 16.0 cm and the “Plant height, % of untreated control” value was 49.5%.
With `O=C1NC2C3CC(C(Br)C3Br)C12` (stereo not shown), the pest or weed control at 3000 g/ha in [3] stood at 95%; in data set [4], 40%; in data set [5] (3.0 kg/ha POST) it was 95%; in data set [6] (3.0 kg/ha POST), 70%.
Consider `CC(=O)OC1C2CC(C3N=NC23)C1Nc1ccc(Br)cc1` (stereo not shown), for which the pest or weed control at 3000 g/ha is 85% in data set [3]; 95% in data set [4]; 100% in data set [5] (3.0 kg/ha POST); 80% in data set [5] (3.0 kg/ha PRE); 100% in data set [7]; 65% in data set [6].
`C[N+](C)(C)CCCl.[Cl-]` [CCC, N,N,N-trimethyl-N-β-chloroethylammonium chloride, reference compound]: the Plant height in [8] (3 kg/ha) turned out to be 21.5 cm; in [8] (12 kg/ha), 19.5 cm; in data set [9] (0.75 kg/ha) it was 29.5 cm; in data set [9] (1.50 kg/ha), 29.5 cm; in data set [9] (3.00 kg/ha), 27.5 cm; in data set [9] (6.00 kg/ha) it was 26.0 cm. For the same compound, the Plant height in [10] (0.75 kg/ha) amounted to 27.5 cm; in [10] (1.50 kg/ha), 27.0 cm; in [10] (3.00 kg/ha) it was 27.0 cm; in [2] (3 kg/ha), 27.5 cm; in data set [2] (12 kg/ha), 24.5 cm; in [11] (0.75 kg/ha) it was 31.5 cm. Further, the Plant height in data set [11] (1.50 kg/ha) is reported as 30.5 cm; in [11] (3.00 kg/ha), 30.0 cm; in [11] (6.00 kg/ha), 28.5 cm; in data set [12] (0.75 kg/ha), 27.5 cm; in data set [12] (1.50 kg/ha), 26.0 cm; in [12] (3.00 kg/ha), 25.0 cm. Further, the Plant height in data set [13] (0.75 kg/ha) stood at 27.0 cm; in [13] (1.50 kg/ha), 25.5 cm; in data set [13] (3.00 kg/ha), 25.5 cm. Moreover, the “Plant height, % of untreated control” value in data set [8] (3 kg/ha) is 71.7%; in data set [8] (12 kg/ha) it was 65.0%; in [9] (0.75 kg/ha), 89.9%; in [9] (1.50 kg/ha) it was 89.9%; in data set [9] (3.00 kg/ha) it was 83.8%; in [9] (6.00 kg/ha) it was 79.3%. The “Plant height, % of untreated control” value in data set [10] (0.75 kg/ha) came to 98.4%; in data set [10] (1.50 kg/ha), 97.1%; in data set [10] (3.00 kg/ha), 97.1%; in data set [2] (3 kg/ha), 85.1%; in [2] (12 kg/ha) it was 75.9%; in data set [11] (0.75 kg/ha) it was 97.5%. Besides, the “Plant height, % of untreated control” value is given as 94.4% in data set [11] (1.50 kg/ha); 92.9% in data set [11] (3.00 kg/ha); 88.2% in data set [11] (6.00 kg/ha); 89.3% in [12] (0.75 kg/ha); 84.4% in [12] (1.50 kg/ha); 81.2% in data set [12] (3.00 kg/ha). Also, the “Plant height, % of untreated control” value in [13] (0.75 kg/ha) was found to be 94.7%; in [13] (1.50 kg/ha), 89.5%; in data set [13] (3.00 kg/ha), 89.5%.
As for `BrC1C(Br)C2CC1C1N=NC21` (stereo not shown) [drawing 427], in [1], the “Potted vines - leaf damage” value is “none”. In addition, the “Change in shoot growth” value in data set [1] (4.0 kg/ha) stood at 14.7 cm; in data set [1] (8.0 kg/ha), 13.3 cm.
Turning to `Clc1ccc(NC2C(Cl)C3CC2C2N=NC32)cc1` (stereo not shown) [drawing 421], the Plant height is 28.0 cm in data set [11] (0.75 kg/ha), 27.0 cm in [11] (1.50 kg/ha), 25.0 cm in data set [11] (3.00 kg/ha) and 23.0 cm in [11] (6.00 kg/ha). Also, the “Plant height, % of untreated control” value in data set [11] (0.75 kg/ha) is given as 86.7%; in data set [11] (1.50 kg/ha), 83.5%; in [11] (3.00 kg/ha) it was 77.4%; in data set [11] (6.00 kg/ha), 71.2%.
`c1ccc(C2=NNC3C4CC(C5N=NC45)C23)cc1` (stereo not shown) [drawing 416]: the values for the Plant height in data set [12] (0.75 kg/ha), in [12] (1.50 kg/ha) and in [12] (3.00 kg/ha) were 26.5 cm, 25.5 cm and 24.0 cm, respectively. Moreover, the “Plant height, % of untreated control” value is recorded as 86.0% in data set [12] (0.75 kg/ha), 82.8% in [12] (1.50 kg/ha) and 77.9% in [12] (3.00 kg/ha).
Turning to `CN(C)NC(=O)CCC(=O)O` [drawing 434], the Shoot length came to 4 cm in data set [14] (1.0 kg/ha); 4 cm in data set [14] (2.0 kg/ha); 4 cm in [14] (4.0 kg/ha); 12 cm in data set [15] (1.0 kg/ha); 5 cm in data set [15] (2.0 kg/ha); 5 cm in [15] (4.0 kg/ha).

These data come from US4259235A, “Tricyclic nitrogenous compounds having string plant growth regulating properties” (BASF Aktiengesellschaft, priority 1977, dated 1981).
